# Source: PubChem BioAssay AID256 (DTP/NCI, 2004)
# Several values for one entry are separate records, joined by “and”; a condition that tells them apart may be missing. Equal entries are not always repeated. Toxic doses and inconclusive results are not listed.
# System: CD2F1 mice, L1210 leukemia ip, survival T/C
# Experiment: NCI In Vivo Anticancer Drug Screen. Data for tumor model L1210 Leukemia (intraperitoneal) in CD2F1 (CDF1) mice
# Conditions: higher = longer survival
# Procedure, shortened: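 Transplantable tumor in mice; compound-treated vs vehicle-treated groups. Read-out = treated/control ratio of the measured endpoint.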
# [1] = endpoint: mean survival time, dose: 100.0 mg/kg/injection, schedule: Q01DX009 (ip), vehicle: saline with Tween-80
# [2] = endpoint: mean survival time, dose: 100.0 mg/kg/injection, schedule: Q04DX003 (ip), vehicle: saline with Tween-80
# [3] = endpoint: mean survival time, dose: 200.0 mg/kg/injection, schedule: Q01DX009 (ip), vehicle: saline with Tween-80
# [4] = endpoint: mean survival time, dose: 200.0 mg/kg/injection, schedule: Q04DX003 (ip), vehicle: saline with Tween-80
# [5] = endpoint: mean survival time, dose: 400.0 mg/kg/injection, schedule: Q01DX009 (ip), vehicle: saline with Tween-80
# [6] = endpoint: mean survival time, dose: 400.0 mg/kg/injection, schedule: Q04DX003 (ip), vehicle: saline with Tween-80
# [7] = endpoint: mean survival time, dose: 100.0 mg/kg/injection, schedule: Q01DX001 (ip), vehicle: saline with Tween-80
# [8] = endpoint: mean survival time, dose: 200.0 mg/kg/injection, schedule: Q01DX001 (ip), vehicle: saline with Tween-80
# [9] = endpoint: mean survival time, dose: 400.0 mg/kg/injection, schedule: Q01DX001 (ip), vehicle: saline with Tween-80
compound,measurement,setting,value
Cc1c(CNc2ccc(C(=O)NC(CC(=O)O)C(=O)O)cc2)ccc2nc(N)nc(N)c12 (stereo not drawn),T/C,"endpoint: mean survival time, dose: 0.18 mg/kg/injection, schedule: Q01DX009 (ip), vehicle: saline",173 % of control
same,T/C,"endpoint: mean survival time, dose: 0.39 mg/kg/injection, schedule: Q01DX009 (ip), vehicle: saline",121 % of control
same,T/C,"endpoint: mean survival time, dose: 0.78 mg/kg/injection, schedule: Q01DX009 (ip), vehicle: saline with Tween-80",94 % of control
same,T/C,"endpoint: mean survival time, dose: 0.78 mg/kg/injection, schedule: Q01DX009 (ip), vehicle: saline",107 % of control
same,T/C,"endpoint: mean survival time, dose: 1.56 mg/kg/injection, schedule: Q01DX009 (ip), vehicle: saline",86 % of control and 95 % of control
same,T/C,"endpoint: mean survival time, dose: 3.12 mg/kg/injection, schedule: Q01DX009 (ip), vehicle: saline",93 % of control
same,T/C,"endpoint: mean survival time, dose: 6.25 mg/kg/injection, schedule: Q01DX009 (ip), vehicle: saline",92 % of control
same,T/C,"endpoint: mean survival time, dose: 25.0 mg/kg/injection, schedule: Q01DX001 (ip), vehicle: saline",170 % of control
same,T/C,"endpoint: mean survival time, dose: 50.0 mg/kg/injection, schedule: Q01DX001 (ip), vehicle: saline",117 % of control
O=C(O)c1ccccc1C(=O)OC1CCC2CCCCC2C1 (stereo not drawn),T/C,[1],98 % of control
same,T/C,[2],97 % of control
same,T/C,[3],95 % of control
same,T/C,[4],92 % of control
same,T/C,[5],98 % of control
same,T/C,[6],101 % of control
Cc1c2cnccc2c(C)c2c1c1ccccc1n2CCO,T/C,[2],123 % of control
same,T/C,[4],117 % of control
same,T/C,[5],170 % of control
same,T/C,[6],162 % of control
COCC1C2CCC(C2)C1COC (stereo not drawn),T/C,[7],104 % of control
same,T/C,[8],92 % of control
same,T/C,[9],97 % of control
O=C(O)c1cc(-c2ccccc2)nc2ccccc12,T/C,[7],103 % of control
same,T/C,[8],97 % of control
same,T/C,[9],102 % of control
O=C1CC2C=CCC12 (stereo not drawn),T/C,[1],98 % of control
same,T/C,[3],98 % of control
same,T/C,[5],100 % of control
Cc1cc(C(O)(C(=O)O)c2ccccc2)c(C)c(C)c1C (stereo not drawn),T/C,"endpoint: mean survival time, dose: 75.0 mg/kg/injection, schedule: Q01DX001 (ip), vehicle: other",90 % of control
same,T/C,"endpoint: mean survival time, dose: 150.0 mg/kg/injection, schedule: Q01DX001 (ip), vehicle: other",94 % of control
same,T/C,"endpoint: mean survival time, dose: 300.0 mg/kg/injection, schedule: Q01DX001 (ip), vehicle: other",102 % of control
CCCCCCCCCCCCCCCCOc1ccccc1CNc1cccc(S(=O)(=O)F)c1,T/C,[1],94 % of control
same,T/C,[2],95 % of control
same,T/C,[3],91 % of control
same,T/C,[4],94 % of control
same,T/C,[5],87 % of control
same,T/C,[6],100 % of control
C=CCS(=O)[O-].[C-]#[O+].[C-]#[O+].[Fe+6].[c-]1[c-][c-][cH-][c-]1,T/C,"endpoint: mean survival time, dose: 12.5 mg/kg/injection, schedule: Q04DX002 (ip), vehicle: saline",97 % of control
same,T/C,"endpoint: mean survival time, dose: 25.0 mg/kg/injection, schedule: Q04DX002 (ip), vehicle: saline",102 % of control
same,T/C,"endpoint: mean survival time, dose: 50.0 mg/kg/injection, schedule: Q04DX002 (ip), vehicle: saline",100 % of control
[Cl][Pt+2][Cl].[NH-]C(c1ccccc1)C([NH-])c1ccccc1 (stereo not drawn),T/C,"endpoint: mean survival time, dose: 6.25 mg/kg/injection, schedule: Q04DX003 (ip), vehicle: saline with Tween-80",112 % of control and 110 % of control and 96 % of control
same,T/C,"endpoint: mean survival time, dose: 12.5 mg/kg/injection, schedule: Q04DX003 (ip), vehicle: saline with Tween-80",102 % of control and 114 % of control and 106 % of control
same,T/C,"endpoint: mean survival time, dose: 25.0 mg/kg/injection, schedule: Q04DX003 (ip), vehicle: saline with Tween-80",120 % of control and 124 % of control and 114 % of control
same,T/C,"endpoint: median survival time, dose: 10.0 mg/kg/injection, schedule: Q04DX003 (ip), vehicle: Klucel (hydroxypropylcellulose) (HPC)",111 % of control
same,T/C,"endpoint: median survival time, dose: 20.0 mg/kg/injection, schedule: Q04DX003 (ip), vehicle: Klucel (hydroxypropylcellulose) (HPC)",113 % of control
same,T/C,"endpoint: median survival time, dose: 40.0 mg/kg/injection, schedule: Q04DX003 (ip), vehicle: Klucel (hydroxypropylcellulose) (HPC)",122 % of control
same,T/C,"endpoint: median survival time, dose: 50.0 mg/kg/injection, schedule: Q04DX003 (ip), vehicle: Klucel (hydroxypropylcellulose) (HPC)",101 % of control
same,T/C,"endpoint: median survival time, dose: 80.0 mg/kg/injection, schedule: Q04DX003 (ip), vehicle: Klucel (hydroxypropylcellulose) (HPC)",112 % of control
same,T/C,"endpoint: median survival time, dose: 100.0 mg/kg/injection, schedule: Q04DX003 (ip), vehicle: Klucel (hydroxypropylcellulose) (HPC)",107 % of control
same,T/C,"endpoint: median survival time, dose: 200.0 mg/kg/injection, schedule: Q04DX003 (ip), vehicle: Klucel (hydroxypropylcellulose) (HPC)",107 % of control
Cc1ccc(C(=O)Nc2cccc(-n3cnc4c(=O)[nH]c(N)nc43)c2)cc1S(=O)(=O)F,T/C,"endpoint: mean survival time, dose: 50.0 mg/kg/injection, schedule: Q04DX002 (ip), vehicle: saline with Tween-80",90 % of control
same,T/C,"endpoint: mean survival time, dose: 100.0 mg/kg/injection, schedule: Q04DX002 (ip), vehicle: saline with Tween-80",101 % of control
same,T/C,"endpoint: mean survival time, dose: 200.0 mg/kg/injection, schedule: Q04DX002 (ip), vehicle: saline with Tween-80",86 % of control
